Tests used:
Conditions in all cases: 72 h
Vero E6 [1] = test: cell viability relative to DMSO; higher = less toxic
U2OS [2] = test: as above
Calu-3 [3] = test: as above
HepG2 [4] = test: as above
Caco-2 [5] = test: as above
Vero E6 [6] = test: drug sensitivity score (DSS) for viability; higher = more toxic; extreme values may be limits of the assay
U2OS [7] = test: as above
Calu-3 [8] = test: as above
HepG2 [9] = test: as above
Caco-2 [10] = test: as above
Vero E6 [11] = test: relative viability EC50 (midpoint between 100% and the lowest measured viability); higher = less toxic
U2OS [12] = test: as above
Calu-3 [13] = test: as above
HepG2 [14] = test: as above
Caco-2 [15] = test: as above

SMILES | cell viability (Vero E6 [1]; 1 nM) [%] | cell viability (Vero E6 [1]; 10 nM) [%] | cell viability (Vero E6 [1]; 100 nM) [%] | cell viability (Vero E6 [1]; 1000 nM) [%] | cell viability (Vero E6 [1]; 10000 nM) [%] | cell viability (U2OS [2]; 1 nM) [%] | cell viability (U2OS [2]; 10 nM) [%] | cell viability (U2OS [2]; 100 nM) [%] | cell viability (U2OS [2]; 1000 nM) [%] | cell viability (U2OS [2]; 10000 nM) [%] | cell viability (Calu-3 [3]; 1 nM) [%] | cell viability (Calu-3 [3]; 10 nM) [%] | cell viability (Calu-3 [3]; 100 nM) [%] | cell viability (Calu-3 [3]; 1000 nM) [%] | cell viability (Calu-3 [3]; 10000 nM) [%] | cell viability (HepG2 [4]; 1 nM) [%] | cell viability (HepG2 [4]; 10 nM) [%] | cell viability (HepG2 [4]; 100 nM) [%] | cell viability (HepG2 [4]; 1000 nM) [%] | cell viability (HepG2 [4]; 10000 nM) [%] | cell viability (Caco-2 [5]; 1 nM) [%] | cell viability (Caco-2 [5]; 10 nM) [%] | cell viability (Caco-2 [5]; 100 nM) [%] | cell viability (Caco-2 [5]; 1000 nM) [%] | cell viability (Caco-2 [5]; 10000 nM) [%] | drug sensitivity score (Vero E6 [6]) | drug sensitivity score (U2OS [7]) | drug sensitivity score (Calu-3 [8]) | drug sensitivity score (HepG2 [9]) | drug sensitivity score (Caco-2 [10]) | relative viability EC50 (Vero E6 [11]) [µM] | relative viability EC50 (U2OS [12]) [µM] | relative viability EC50 (Calu-3 [13]) [µM] | relative viability EC50 (HepG2 [14]) [µM] | relative viability EC50 (Caco-2 [15]) [µM]
c1ccc(-c2n[nH]cc2-c2ccnc3ccccc23)nc1 | 94.1 | 99.4 | 99.4 | 89.3 | 104 | 94.1 | 97.9 | 95.9 | 98.9 | 91.4 | 95.5 | 105 | 110 | 105 | 105 | 110 | 96.4 | 107 | 102 | 116 | 96.4 | 93.1 | 92.7 | 103 | 97.3 | 0 | 0 | 0 | 0 | 0 | > 10 | > 10 | > 10 | > 10 | > 10
CCC[C@H](Nc1nc(-c2ccc(NC(=O)NCC)c(OC)c2)ncc1C)c1cccnc1 [CYT-997] | 95.7 | 100 | 98.5 | 22 | 23.7 | 97.2 | 102 | 45.6 | 19.1 | 18.2 | 99.4 | 96 | 54.4 | 37 | 37.5 | 101 | 106 | 51.8 | 36.3 | 33.3 | 97.9 | 93.5 | 84 | 42.6 | 38.2 | 14.4 | 21.3 | 17.4 | 17.9 | 12.4 | 0.303 | 0.0761 | 0.0547 | 0.0687 | 0.198
Cc1cccc(NC(=O)c2ccc(C(F)(F)F)cc2C(=O)O)n1 | 99.7 | 99.8 | 105 | 104 | 106 | 100 | 102 | 97 | 97 | 104 | 103 | 95 | 94.5 | 106 | 98.6 | 103 | 96.8 | 105 | 108 | 102 | 99.5 | 101 | 101 | 98 | 105 | 0 | 0 | 0 | 0 | 0 | > 10 | > 10 | > 10 | > 10 | > 10
